From patent US10111892B2, “Anti-cancer agent” (priority 2009, dated 2018)

Key:
KM rats = assay: Toxicity test, single oral administration to rats; format: in vivo; settings: for Oral administration LD50: male and female KM rats, single oral dose in corn oil, observed to the fourteenth day
Protocol: Toxicity caused when the phosphine transition metal complexes obtained in the examples and the comparative examples were orally administered to rats was tested. Specifically, male and female KM rats were quarantined and raised while being acclimated, and then the selected 20 rats in total including 10 male rats and 10 female rats were formed into a group. The phosphine transition metal complexes obtained in the examples and comparative examples were orally administered once to rats which were fasted over night before the administration and whose weights were recorded, by using corn oil as a solvent and with a design such that a group showing sufficient fatal cases was included to determine LD50.

[1] = tested on: KB (oral squamous cell carcinoma); assay: In vitro anti-tumor activity test (MTT), KB cells; format: cell-based; settings: 48 hours of culture
Protocol: (§1) [In Vitro Anti-Tumor Activity Test]
(§2) The phosphine transition metal complexes obtained in the examples and the comparative examples were subjected to an in vitro anti-tumor activity test. Specifically, KB (oral squamous cell carcinoma) and A375 (malignant melanoma) were used as cancer cells, and these cells were cultured in an incubator at 37° C. in a culture medium (RPMI-1640 or DEME) to which 10% inactivated fetal calf serum, L-glutamine, sodium pyruvate, 1×10^5 U/L of penicillin, and 100 mg/L of streptomycin had been supplemented. The cells were added such that each well contained 2×10^5 cells. Subsequently, the phosphine transition metal complex dissolved in dimethylsulfoxide was added to the medium and cultured for 48 hours. After the 48 hours of culture, a 5 mg/ml (3,[4,5-dimethylthiazol-2-yl]-2,5-diphenyltetrazolium bromide MTT) solution was added at 20 μl to each well, followed by culture for 3 to 4 hours in an incubator. Thereafter, 100 μl of a solution was further added to each well to completely solubilize the generated formazan crystals. The absorbance of the resultant at 492 nm was then measured, and IC50 was calculated.

[2] = tested on: A375 (malignant melanoma); assay: In vitro anti-tumor activity test (MTT), A375 cells; format: cell-based; settings: 48 hours of culture
Protocol: as §1, §2

## CP(c1nc2ccccc2nc1P(C)C(C)(C)C)C(C)(C)C.CP(c1nc2ccccc2nc1P(C)C(C)(C)C)C(C)(C)C.[Au+].[Cl-] (stereo not shown) [Comparative Example 1, Bis(2,3-bis(tert-butylmethylphosphino)quinoxaline)gold(I) chloride, reference compound]
KM rats
  Oral administration LD50: 90.99 mg/kg
KM rats; oral administration to rats, compared with the other complexes
  toxicity (in words): relatively high
[1]
  In vitro anti-tumor activity IC50, KB: 1.11 µg/mL
[2]
  In vitro anti-tumor activity IC50, A375: 2.26 µg/mL

## CP(c1nc2ccccc2nc1P(C)C(C)(C)C)C(C)(C)C.CP(c1nc2ccccc2nc1P(C)C(C)(C)C)C(C)(C)C.[Au+].[Cl-] (stereo not shown) [Example 1, bis(2,3-bis(tert-butylmethylphosphino)quinoxaline)gold(I) chloride]
KM rats
  Oral administration LD50: 134.37 mg/kg
[1]
  In vitro anti-tumor activity IC50, KB: 0.94 µg/mL
[2]
  In vitro anti-tumor activity IC50, A375: 1.13 µg/mL

## CP(c1nc2ccccc2nc1P(C)C(C)(C)C)C(C)(C)C.CP(c1nc2ccccc2nc1P(C)C(C)(C)C)C(C)(C)C.[Au+].[Cl-] (stereo not shown) [Example 3, Bis(2,3-bis(tert-butylmethylphosphino)quinoxaline)gold(I) chloride]
KM rats
  Oral administration LD50: 118.66 mg/kg
[1]
  In vitro anti-tumor activity IC50, KB: 0.97 µg/mL
[2]
  In vitro anti-tumor activity IC50, A375: 1.22 µg/mL

## Bis(2,3-bis(tert-butylmethylphosphino)quinoxaline) gold(I) chloride [Example 2]
KM rats
  Oral administration LD50: 97.44 mg/kg
[1]
  In vitro anti-tumor activity IC50, KB: 1.03 µg/mL
[2]
  In vitro anti-tumor activity IC50, A375: 1.94 µg/mL
